Laboratory results reported in patent publication US10383875B2, “Pharmaceutical formulations of xanthine or xanthine derivatives, and their use” (Imprimis Pharmaceuticals, Inc., priority 2013, dated 2019).

Tests used:
erectile dysfunction = assay: Intracavernosal injection in a patient with erectile dysfunction (Example 4); type: in vivo, human; details: person, along with phentolamine, alprostadil and papaverine
Description: A new injection was reformulated to contain the 3 vasoactive drugs mentioned above along with the addition of pentoxifylline, and was administered to the patient.

Peyronie's plaque = assay: Injection of pentoxifylline directly into the Peyronie's plaque of patients (Examples 5 and 6); type: in vivo, human; details: Peyronie's disease
Description: In Examples 5 and 6, patients suffering from Peyronie's disease were treated. A therapy cycle included injections of sterile pentoxifylline. More specifically, 6 separate injections were to be conducted over every two weeks. The dosage was 5 mg of pentoxifylline in a 1 ml volume. Single use vials were dispensed. The injections were made using a 21 gauge cannula directly into the Peyronie's plaque. A nerve block was done around the injection site to lessen the pain. Manual manipulation and traction techniques were employed to massage the area of the injection. Patients returned after two weeks for another injection and manual manipulation session.
Baseline measurements were collected before any treatment occurred to characterize the extent of the patient's disease. The degree of curvature was noted, as well as any pain/discomfort that the patient presently had and current sexual ability. Psychosocial effects related to the patient's disease were observed as well.
In Example 5, the patient suffering from Peyronie's disease was brought to the procedure room, prepared and draped in the usual sterile fashion.
A total of 1 mL of 1% lidocaine was used to perform a local block. Once the patient was anesthetized, the plaque was isolated between two fingers and 1 mL of 5 mg pentoxyfilline was injected into the plaque in a fan-like fashion. […]

[1] = test system: symptoms of PD, such as erectile dysfunction; assay: Intracavernosal injection of a composition comprising pentoxifylline (general finding); type: in vivo
From the text: This disclosure relates to the finding that local administration of a xanthine derivative, e.g., pentoxifylline, has produced unexpected improvement in treating a fibrotic disease.

[2] = test system: Peyronie's Disease plaques; details: oral administration; cited from earlier work

## CC(=O)CCCCn1c(=O)c2c(ncn2C)n(C)c1=O [pentoxifylline, 1-(5-oxohexyl)-3,7-dimethylxanthine]
Erectile dysfunction; pentoxifylline 6 mg dose
  improvement of erectile dysfunction: more remarkable
Erectile dysfunction; pentoxifylline dose of 4 mg per injection
  improvement of erectile dysfunction: remarkable improvement
Peyronie's plaque; Example 5 patient, 1 mL of 5 mg injected into the plaque after 1% lidocaine local block
  tolerability of the procedure: tolerated the procedure well
Peyronie's plaque; Example 6 patient, treated in the same fashion as Example 5 (5 mg in 1 ml into the plaque)
  tolerability of the procedure: tolerated the procedure well
[1]
  improvement to symptoms of PD, such as erectile dysfunction: remarkable improvement
  side effects: fewer side effects
[2]
  improvement of Peyronie's disease: moderate to minimal improvement
